IC50 and Papp data for one molecule are collected here from ChEMBL document CHEMBL4118189, “Discovery of novel N-hydroxy-2-arylisoindoline-4-carboxamides as potent and selective inhibitors of HDAC11” (Bioorg Med Chem Lett, 2018).

The term IC50 denotes the concentration needed to halve the response being measured.

Where only a bound is given, the exact number is not on record here.

Data set [1] addresses T1, Histone deacetylase 11 (Homo sapiens, UniProt Q96DB2).
T1 sequence (Q96DB2 whole entry): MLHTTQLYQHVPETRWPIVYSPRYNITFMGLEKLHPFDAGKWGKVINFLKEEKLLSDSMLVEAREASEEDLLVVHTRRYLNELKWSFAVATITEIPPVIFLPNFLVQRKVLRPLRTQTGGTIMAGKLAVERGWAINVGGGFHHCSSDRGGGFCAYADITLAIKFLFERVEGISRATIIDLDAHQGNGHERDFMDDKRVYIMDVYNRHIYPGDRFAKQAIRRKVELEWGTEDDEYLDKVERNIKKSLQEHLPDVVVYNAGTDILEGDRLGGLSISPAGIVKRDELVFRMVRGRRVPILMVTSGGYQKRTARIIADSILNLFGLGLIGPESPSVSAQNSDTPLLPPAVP
Nature of the data set: Inhibition of full length recombinant human HDAC11 expressed in baculoviral expression system using FAM-RHKK as substrate by electrophoretic mobility shift assay.

The nature of data set [2]: Permeability of the compound by PAMPA. The class given is ADME. The conditions noted are these: read-out: permeability. (In general: The PAMPA barrier holds no transporters, so it reflects passive diffusion.)
For data set [3], the target named is T1, Histone deacetylase 11. Nature of the data set: Inhibition of NanoLuc-tagged HDAC11 (unknown origin) by BRET assay. On the technique in general: BRET reads energy transfer from a luciferase to a nearby fluorophore.
Data set [4] concerns the target Histone deacetylase 1 (Homo sapiens, UniProt Q13547). As to the kind of experiment: Inhibition of full length recombinant human HDAC1 using fluorescent-labeled peptide as substrate by electrophoretic mobility shift assay.
Data set [5] concerns the target Histone deacetylase 2 (Homo sapiens, UniProt Q92769). As to the kind of experiment: Inhibition of full length recombinant human HDAC2 using fluorescent-labeled peptide as substrate by electrophoretic mobility shift assay. On the technique in general: Mobility shift assays separate free from complexed probe on a gel.
Data set [6] concerns the target Histone deacetylase 4 (Homo sapiens, UniProt P56524). As to the kind of experiment: Inhibition of full length recombinant human HDAC4 using fluorescent-labeled peptide as substrate by electrophoretic mobility shift assay.
The target of data set [7] is T2, Histone deacetylase 8 (Homo sapiens, UniProt Q9BY41).
T2 sequence (Q9BY41 whole entry): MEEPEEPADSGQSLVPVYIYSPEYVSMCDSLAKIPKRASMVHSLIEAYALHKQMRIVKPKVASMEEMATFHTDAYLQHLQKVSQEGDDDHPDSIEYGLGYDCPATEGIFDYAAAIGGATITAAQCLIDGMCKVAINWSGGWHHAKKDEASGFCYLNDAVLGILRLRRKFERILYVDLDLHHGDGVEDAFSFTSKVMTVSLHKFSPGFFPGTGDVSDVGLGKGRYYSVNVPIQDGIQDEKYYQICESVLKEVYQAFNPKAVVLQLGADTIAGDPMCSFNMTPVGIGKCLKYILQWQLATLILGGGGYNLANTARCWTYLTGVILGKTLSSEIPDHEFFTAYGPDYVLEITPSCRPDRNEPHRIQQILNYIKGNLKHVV
Nature of the data set: Inhibition of full length recombinant human HDAC8 using fluorescent-labeled peptide as substrate by electrophoretic mobility shift assay.

Data set [8] deals with Histone deacetylase 9 (Homo sapiens, UniProt Q9UKV0). As to the kind of experiment: Inhibition of full length recombinant human HDAC9 using fluorescent-labeled peptide as substrate by electrophoretic mobility shift assay.
Data set [9] has as its target T3, Polyamine deacetylase HDAC10 (Homo sapiens, UniProt Q969S8).
T3 sequence (Q969S8 whole entry): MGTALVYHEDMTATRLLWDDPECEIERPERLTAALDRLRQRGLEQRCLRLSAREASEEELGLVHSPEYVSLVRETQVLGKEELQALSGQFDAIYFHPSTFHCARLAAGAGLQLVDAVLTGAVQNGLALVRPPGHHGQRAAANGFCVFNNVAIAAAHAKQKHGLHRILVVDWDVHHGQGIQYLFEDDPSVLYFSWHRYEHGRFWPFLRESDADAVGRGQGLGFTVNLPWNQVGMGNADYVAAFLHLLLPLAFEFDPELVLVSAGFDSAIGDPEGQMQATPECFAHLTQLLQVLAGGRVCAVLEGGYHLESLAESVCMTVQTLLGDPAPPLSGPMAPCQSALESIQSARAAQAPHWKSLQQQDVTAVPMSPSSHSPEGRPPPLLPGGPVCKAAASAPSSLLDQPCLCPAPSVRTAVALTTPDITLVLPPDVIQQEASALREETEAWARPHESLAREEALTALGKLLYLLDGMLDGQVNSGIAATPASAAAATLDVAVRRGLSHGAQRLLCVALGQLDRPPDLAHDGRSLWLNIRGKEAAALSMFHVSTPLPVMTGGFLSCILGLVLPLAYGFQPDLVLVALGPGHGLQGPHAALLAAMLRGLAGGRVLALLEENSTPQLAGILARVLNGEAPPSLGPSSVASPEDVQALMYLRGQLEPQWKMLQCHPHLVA
Nature of the data set: Inhibition of full length recombinant human HDAC10 using fluorescent-labeled peptide as substrate by electrophoretic mobility shift assay.

Chain of Histone deacetylase 4 (P56524 whole entry): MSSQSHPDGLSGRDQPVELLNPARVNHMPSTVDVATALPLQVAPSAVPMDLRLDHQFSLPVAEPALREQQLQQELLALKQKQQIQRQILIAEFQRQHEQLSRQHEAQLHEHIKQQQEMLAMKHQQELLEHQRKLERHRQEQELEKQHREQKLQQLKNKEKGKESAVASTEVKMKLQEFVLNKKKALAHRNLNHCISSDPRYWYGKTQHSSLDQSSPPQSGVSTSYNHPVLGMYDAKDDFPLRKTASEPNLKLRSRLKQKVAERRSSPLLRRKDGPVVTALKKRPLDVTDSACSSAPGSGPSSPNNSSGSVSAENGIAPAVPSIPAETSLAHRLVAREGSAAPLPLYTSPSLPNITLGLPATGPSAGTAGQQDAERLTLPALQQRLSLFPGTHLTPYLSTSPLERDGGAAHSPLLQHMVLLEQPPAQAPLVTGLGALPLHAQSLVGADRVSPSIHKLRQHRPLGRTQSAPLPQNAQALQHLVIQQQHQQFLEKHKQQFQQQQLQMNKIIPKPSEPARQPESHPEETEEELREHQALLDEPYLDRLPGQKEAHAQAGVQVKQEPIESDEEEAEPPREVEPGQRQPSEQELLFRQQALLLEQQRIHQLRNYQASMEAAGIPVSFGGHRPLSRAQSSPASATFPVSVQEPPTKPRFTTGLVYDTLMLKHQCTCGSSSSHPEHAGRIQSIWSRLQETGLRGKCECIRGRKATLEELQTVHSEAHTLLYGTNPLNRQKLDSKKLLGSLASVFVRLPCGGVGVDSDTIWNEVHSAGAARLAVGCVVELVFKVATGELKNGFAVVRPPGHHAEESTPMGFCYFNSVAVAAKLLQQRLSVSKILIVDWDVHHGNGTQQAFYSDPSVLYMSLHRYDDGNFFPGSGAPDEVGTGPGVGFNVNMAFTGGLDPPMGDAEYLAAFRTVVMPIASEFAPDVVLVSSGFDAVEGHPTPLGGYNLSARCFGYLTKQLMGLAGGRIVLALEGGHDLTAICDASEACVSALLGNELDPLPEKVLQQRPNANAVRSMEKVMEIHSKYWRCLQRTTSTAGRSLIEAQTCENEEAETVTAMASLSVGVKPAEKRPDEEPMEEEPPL
Chain of Histone deacetylase 2 (Q92769 whole entry): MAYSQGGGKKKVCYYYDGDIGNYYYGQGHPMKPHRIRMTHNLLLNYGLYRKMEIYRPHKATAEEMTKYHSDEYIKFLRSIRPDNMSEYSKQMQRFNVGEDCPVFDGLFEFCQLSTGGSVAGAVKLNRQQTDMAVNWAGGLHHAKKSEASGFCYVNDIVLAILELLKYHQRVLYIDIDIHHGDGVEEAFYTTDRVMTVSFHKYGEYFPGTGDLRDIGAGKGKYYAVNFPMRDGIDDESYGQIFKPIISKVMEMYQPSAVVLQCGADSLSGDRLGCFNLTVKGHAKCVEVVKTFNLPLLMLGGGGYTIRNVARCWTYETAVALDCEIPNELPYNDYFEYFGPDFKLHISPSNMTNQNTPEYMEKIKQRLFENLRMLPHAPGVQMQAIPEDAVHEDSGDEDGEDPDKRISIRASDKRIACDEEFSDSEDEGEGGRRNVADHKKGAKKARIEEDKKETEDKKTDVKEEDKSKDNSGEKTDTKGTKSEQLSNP
Chain of Histone deacetylase 1 (Q13547 whole entry): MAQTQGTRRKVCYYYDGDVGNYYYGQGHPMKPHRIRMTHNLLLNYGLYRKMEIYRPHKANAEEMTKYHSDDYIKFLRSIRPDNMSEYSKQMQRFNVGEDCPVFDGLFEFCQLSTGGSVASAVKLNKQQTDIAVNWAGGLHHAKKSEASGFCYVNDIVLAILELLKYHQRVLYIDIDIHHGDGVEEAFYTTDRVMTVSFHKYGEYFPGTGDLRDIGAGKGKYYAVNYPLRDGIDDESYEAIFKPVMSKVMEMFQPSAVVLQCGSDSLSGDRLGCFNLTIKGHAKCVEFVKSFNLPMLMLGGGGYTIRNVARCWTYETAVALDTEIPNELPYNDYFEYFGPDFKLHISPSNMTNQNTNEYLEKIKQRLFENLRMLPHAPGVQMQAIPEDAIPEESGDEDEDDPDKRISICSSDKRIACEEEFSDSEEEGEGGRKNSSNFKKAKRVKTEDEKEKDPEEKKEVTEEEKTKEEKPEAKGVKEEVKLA
Chain of Histone deacetylase 9 (Q9UKV0 whole entry): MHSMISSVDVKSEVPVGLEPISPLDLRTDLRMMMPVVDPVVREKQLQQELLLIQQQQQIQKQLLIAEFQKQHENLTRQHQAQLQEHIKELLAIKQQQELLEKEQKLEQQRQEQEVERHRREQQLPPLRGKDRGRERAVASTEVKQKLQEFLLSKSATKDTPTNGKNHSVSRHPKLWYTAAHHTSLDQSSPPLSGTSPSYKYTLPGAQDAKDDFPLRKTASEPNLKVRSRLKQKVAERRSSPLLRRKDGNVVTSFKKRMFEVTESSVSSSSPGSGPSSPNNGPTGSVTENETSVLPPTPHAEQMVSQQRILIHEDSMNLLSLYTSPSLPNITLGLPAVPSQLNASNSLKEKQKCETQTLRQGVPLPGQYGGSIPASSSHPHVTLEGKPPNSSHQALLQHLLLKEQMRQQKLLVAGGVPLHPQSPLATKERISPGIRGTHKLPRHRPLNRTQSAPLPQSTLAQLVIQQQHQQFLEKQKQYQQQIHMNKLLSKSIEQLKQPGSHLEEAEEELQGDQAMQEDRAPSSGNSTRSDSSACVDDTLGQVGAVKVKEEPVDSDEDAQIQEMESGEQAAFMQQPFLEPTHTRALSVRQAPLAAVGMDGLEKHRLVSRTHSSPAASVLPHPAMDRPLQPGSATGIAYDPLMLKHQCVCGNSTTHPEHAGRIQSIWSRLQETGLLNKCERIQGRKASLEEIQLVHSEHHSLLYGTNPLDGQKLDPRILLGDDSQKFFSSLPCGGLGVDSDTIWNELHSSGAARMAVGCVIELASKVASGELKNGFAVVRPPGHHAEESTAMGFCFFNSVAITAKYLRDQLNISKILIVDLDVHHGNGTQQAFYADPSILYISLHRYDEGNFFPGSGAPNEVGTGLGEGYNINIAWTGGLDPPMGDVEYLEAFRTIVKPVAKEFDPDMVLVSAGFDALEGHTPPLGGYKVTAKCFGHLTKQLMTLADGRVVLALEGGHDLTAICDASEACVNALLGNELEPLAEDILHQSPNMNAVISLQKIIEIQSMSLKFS

Take `CC1(C)c2cccc(C(N)=O)c2CN1c1cnc(C(F)(F)F)cn1`: the IC50 was > 10 µM in [1]; > 25 µM in [3]; > 10 µM in data set [4]; > 10 µM in data set [5]; > 10 µM in data set [6]; > 10 µM in data set [7]. Besides, the IC50 in [8] and in [9] was > 10 µM in each case. The Papp in [2] was determined as 17 ×10⁻⁶ cm/s.
